Structures are written as SMILES.

Consider five compounds from patent publication EP4806892A1, “CEREBLON E3 UBIQUITIN LIGASE INHIBITOR” (GAN & LEE PHARMACEUTICALS CO., LTD., priority 2023, dated 2025).

Holding throughout (type): cell-based
One test concerns the target T1, IRAK4 (Homo sapiens, UniProt Q9NWZ3).
T1 construct: The supernatant was carefully collected and analyzed for IRAK4 protein levels by immunoblotting; host or cells: THP-1
T1 sequence (Q9NWZ3 1-460): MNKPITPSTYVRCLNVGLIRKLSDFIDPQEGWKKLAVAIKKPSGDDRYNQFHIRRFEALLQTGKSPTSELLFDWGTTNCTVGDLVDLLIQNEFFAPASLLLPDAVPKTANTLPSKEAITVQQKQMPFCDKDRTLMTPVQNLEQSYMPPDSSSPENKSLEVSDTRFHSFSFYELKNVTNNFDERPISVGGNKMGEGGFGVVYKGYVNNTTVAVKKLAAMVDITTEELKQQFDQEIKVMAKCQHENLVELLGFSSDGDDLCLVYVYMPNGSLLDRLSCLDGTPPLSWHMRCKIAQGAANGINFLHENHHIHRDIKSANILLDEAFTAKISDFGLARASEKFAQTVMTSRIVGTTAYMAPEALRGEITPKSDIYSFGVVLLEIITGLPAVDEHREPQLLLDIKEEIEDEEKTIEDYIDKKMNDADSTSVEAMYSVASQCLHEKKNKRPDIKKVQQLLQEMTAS
The experiment in a line: IRAK4 degradation in THP-1 cells (Western blot). The settings on record: 24 hours. As for the experimental part: 2 mL of THP-1 cells were seeded into a 6-well cell culture plate at a density of 4 × 10^5 cells/well. After adding 1 µL of compound in dimethyl sulfoxide solution (final concentration 10-10,000 nM) and continuing to incubate at 37°C, 5% CO2 for 24 hours, cells were collected into 2 mL centrifuge tubes and centrifuged at 125 g at 4°C for 5 minutes. The cell pellet was washed once with 1 mL of pre-chilled 1× DPBS and resuspended and lysed in 50 µL of RIPA lysis buffer (P0013B, Beyotime) and 1× protease inhibitor cocktail (P1005, Beyotime). After incubation on ice for 20 minutes, the cells were centrifuged at 14,000 g at 4°C for 30 minutes. The supernatant was carefully collected and analyzed for IRAK4 protein levels by immunoblotting.
Western blotting: The total protein concentration in the collected cell lysate supernatant was determined using the BCA protein concentration assay kit (enhanced) (P0009, Beyotime). Based on the total protein concentration detected by BCA, the protein concentration was adjusted to 1 µg/µL using RIPA lysis buffer and 5× SDS-PAGE protein loading buffer (MB01015, GenScript). The protein was denatured in a 95°C water bath for 5 minutes. After denaturation, the condensed water on the centrifuge tube wall was collected by centrifugation and used as the loading sample. […] Electrophoresis was performed at 100 V for 20 minutes, then switched to 150 V for 40 minutes. After electrophoresis, the proteins in the SDS-PAGE gel were transferred to a PVDF membrane and transferred at a constant voltage of 100 V for 60 minutes. After transfer, the PVDF membrane corresponding to the IRAK4 protein and internal reference protein was cut and incubated in 1× QuickBlock blocking buffer (P0252, Beyotime) for 30 minutes at room temperature on a shaker. […] After incubation, the PVDF membrane was washed three times with 1× TBST buffer for 5 minutes each. […] The membrane was then washed again three times with 1× TBST buffer for 5 minutes each. Finally, the membrane was imaged using a dual-color infrared laser imaging system (Odyssey DLx, LI-COR). Protein maps were analyzed for grayscale values using Image Studio Lite software. The grayscale correction value for each sample was calculated using the formula: grayscale correction value = grayscale value of the target protein / grayscale value of the corresponding internal reference. The grayscale correction values of the compound group and the control group were then compared to calculate the degradation rate of the compound.
On the technique in general: A western blot detects proteins with antibodies after separation by electrophoresis.

The subject of another test is TNFα. The experiment in a line: LPS-induced TNFα secretion by PBMC (HTRF detection). The settings on record: Homo sapiens, hPBMC, 20 hours compound then LPS 200 ng/mL for 5 hours, read-out: IC50 (inhibition of LPS-induced TNFα). As for the experimental part:
(§1) After thawing, cryopreserved hPBMC (FPB003F-C, Shanghai OriBiotech) cells were resuspended in RPMI 1640 medium (30-2001,ATCC) containing 10% inactivated FBS (10099141C, Gibco) and cultured overnight at 37°C and 5% CO2. The next day, hPBMC cells were seeded in a 96-well cell culture plate at a density of 2 × 10^5 cells/well/100 µL (2 × 10^6 cells/mL), and 100 µL of compound in dimethyl sulfoxide solution (final concentration 0.0064-2500 nM) was added. […] The cell plate was placed in a 37°C, 5% CO2 incubator for 5 hours, and then centrifuged at 1000 rpm for 15 minutes. 100 µL of cell supernatant was collected from each well for cytokine concentration testing, which was tested immediately or frozen at -80°C for testing.
The TNFα concentration in the supernatant of LPS-induced THP-1 cells was determined using the TNF […] detection kit (62[…], PerkinElmer).
TNFα standard solutions of varying concentrations were prepared according to the product instructions, ranging from 0 to 2500 pg/mL. Equal volumes of Eu Cryptate antibody (1×) and d2 antibody (1×) were used to prepare the antibody mixture. 16 µL of standard solution or sample supernatant and 4 µL of the antibody mixture were added to each well of a 384-well white plate. The mixture was centrifuged at 800 rpm for 1 minute and incubated at room temperature for 2 hours. The absorbance at 620 nm and […] was read using a microplate reader (SPARK m1000pro, TECAN). A standard curve was plotted using the signal values of each TNFα standard solution. The TNFα concentration in each sample was determined based on the corresponding concentration of the signal value on the standard curve. The inhibitory rate of the compound on LPS-induced TNFα expression in THP-1 cell supernatants at different drug concentrations was calculated based on the TNFα concentration. The inhibition rate data were plotted in GraphPad Prism 8.0 software, and the IC50 value was calculated. Inhibition Rate = [1−(OD(Sample)−OD(Blank))/(OD(Control)−OD(Blank))] × 100% [formula] Table 9: Degradation effect of example compounds on IRAK4 in PBMC cells

A further test deals with IL-6. The test can be described thus: LPS-induced IL-6 secretion by hPBMC (ELISA). The settings on record: Homo sapiens, 20 h compound then LPS 200 ng/mL for 5 h; for inhibition at […]: 2500nM, read-out: Inhibition Rate of IL-6 (2500nM). As for the experimental part: as §1, with “OriBiotech.)” for “OriBiotech)”, “(30-2001, ATCC)” for “(30-2001,ATCC)”, “h,” for “hours,”, “min.” for “minutes.”, “awhich” for “which”
The IL-6 concentration in the supernatant of hPBMC cells induced by LPS was determined using a Human IL-6 ELISA kit (D6050, RD).
IL-6 standard solutions of varying concentrations were prepared according to the product instructions, ranging from 0 to 300 pg/mL. 100 µL of Assay Diluent RD1W and 100 µL of standard solution or sample supernatant were added to a pre-coated ELISA plate and incubated at room temperature for 2 hours. After washing the plate four times with 1× wash buffer, then 200 µL of Human IL-6 Conjugate was added and incubated at room temperature for 2 hours. After washing the plate four times with 1× wash buffer, then 200 µL of Substrate Solution was added and incubated at room temperature for 20 minutes. Finally, 50 µL of Stop Solution was added to terminate the reaction. The absorbance at 450 nm and 570 nm were read using a microplate reader (SPARK m1000pro, TECAN). The standard curve was plottd by the signal value of each concentration of IL-6 standard solution, and the IL-6 concentration in each sample was determined according to the corresponding concentration of the signal value of each well on the standard curve. The inhibition rate of the compound on LPS-induced IL-6 in the hPBMC cell supernatant at different drug concentrations was calculated according to the IL-6 concentration. The inhibition rate data were plotted in GraphPad Prism 8.0 software to calculate the IC50 value. Inhibition Rate = [1−(OD(sample)−OD(blank))/(OD(control)−OD(blank))] × 100% [formula] Table 10: Inhibitory effect of Example compounds on LPS-induced IL-6 secretion by hPBMC
In general terms: An ELISA detects its analyte on a solid surface through an enzyme-linked reagent.

For the compound `O=C1CCN(c2ccc3c(c2)OCC[C@@H]2CN(C[C@H]4CC[C@@H](OC5CCN(C(=O)[C@H]6CC[C@H](n7cc(NC(=O)c8cnn9ccc(N%10C[C@H]%11C[C@@H]%10CO%11)nc89)c(C(F)F)n7)CC6)CC5)CC4)CCN32)C(=O)N1` [IR-P-2], on IRAK4, the “IRAK4 degradation (10nM)” value was “B (50% > degradation rate ≥ 20%)” and the “IRAK4 degradation (100nM)” value is “B (50% > degradation rate ≥ 20%)”. In addition, the IC50 in the test with TNFα amounted to 184 nM. The inhibition at […] with IL-6 came out at 86%.

For `O=C1CCN(c2ccc3c(c2)OCC[C@H]2CN(C[C@H]4CC[C@H](OC5CCN(C(=O)[C@H]6CC[C@H](n7cc(NC(=O)c8cnn9ccc(N%10C[C@H]%11C[C@@H]%10CO%11)nc89)c(C(F)F)n7)CC6)CC5)CC4)CCN32)C(=O)N1` [IR-P-3], at IRAK4, the “IRAK4 degradation (10nM)” value is “A (a degradation rate ≥ 50%)” and the “IRAK4 degradation (100nM)” value is “A (a degradation rate ≥ 50%)”. In addition, the IC50 with TNFα was 64.3 nM. Further, the inhibition at 0.02 µM in the test on IL-6 (20nM, read-out: Inhibition Rate of IL-6 (20nM)) was 63%. Also, the inhibition at […] in the test on IL-6 amounted to 89%.

Regarding `O=C1CCN(c2ccc3c(c2)OCC[C@@H]2CN(C[C@H]4CC[C@H](OC5CCN(C(=O)[C@H]6CC[C@H](n7cc(NC(=O)c8cnn9ccc(N%10C[C@H]%11C[C@@H]%10CO%11)nc89)c(C(F)F)n7)CC6)CC5)CC4)CCN32)C(=O)N1` [IR-P-4], at IRAK4, the “IRAK4 degradation (10nM)” value is listed as “B (50% > degradation rate ≥ 20%)” and the “IRAK4 degradation (100nM)” value is reported as “A (a degradation rate ≥ 50%)”. Moreover, in the test with TNFα, the IC50 was 142 nM. In addition, the inhibition at […] in the test on IL-6 was determined as 84%.

As for `O=C1CCN(c2ccc3c(c2)OCC[C@H]2CN(C[C@H]4CC[C@@H](OC5CCN(C(=O)[C@H]6CC[C@H](n7cc(NC(=O)c8cnn9ccc(N%10C[C@H]%11C[C@@H]%10CO%11)nc89)c(C(F)F)n7)CC6)CC5)CC4)CCN32)C(=O)N1` [IR-P-1], on IRAK4, the “IRAK4 degradation (10nM)” value is listed as “B (50% > degradation rate ≥ 20%)” and the “IRAK4 degradation (100nM)” value is reported as “B (50% > degradation rate ≥ 20%)”. In addition, the half-inhibitory concentration (IC50) with TNFα stood at 78.6 nM. For the same compound, the inhibition at […] with IL-6 was 87%.

`O=C1CCN(c2ccc3c(c2)OC2(CC3)CN(CC3CCN(C(=O)[C@H]4CC[C@H](n5cc(NC(=O)c6cnn7ccc(N8C[C@H]9C[C@@H]8CO9)nc67)c(C(F)F)n5)CC4)CC3)C2)C(=O)N1` [IR-P-5]: the “IRAK4 degradation (10nM)” value on IRAK4 is “B (50% > degradation rate ≥ 20%)”. In the test on TNFα, the IC50 was 69.6 nM. Besides, the inhibition at […] in the test with IL-6 stood at 78%.

As usually defined, the IC50 is the midpoint of a concentration-inhibition curve. In general, inhibition refers to the relative decrease from the control value, in per cent.
